Reference: US20260132132A1, “3A,4,5,6-TETRAHYDRO-1 H-PYRAZOLO[3,4-C]PYRIDIN-7(7AH)-ONE DERIVATIVES AS FACTOR XIIA INHIBITORS” (KALVISTA PHARMACEUTICALS LIMITED, priority 2022, published 2026)

Legend:
[1] = molecular target: FXa (Homo sapiens, UniProt P00742); assay: Related protease inhibition: FXa, fluorogenic substrate; type: biochemical; details: fluorogenic substrate at Km, 25° C.; H1-H3 = % activity at 40 μM
Experimental: Human serine protease enzyme Plasma Kallikrein, KLK1, FXa, Plasmin, Thrombin and Trypsin were assayed for enzymatic activity using an appropriate fluorogenic substrate at Km concentration, FXIa at fixed substrate concentration of 100 μM and various concentrations of the test compound.

[2] = molecular target: T1, Human Factor XIIa (hFXIIa) (Homo sapiens, UniProt P00748); assay: Determination of Human Factor XIIa (hFXIIa) inhibition, fluorogenic substrate IC50 assay; type: biochemical; details: fluorogenic substrate H-DPro-Phe-Arg-AFC at Km, 25° C., read-out: Human FXIIa IC50
T1 construct: purchased Enzyme Research Laboratories
T1 sequence (P00748 373-615 limits assumed): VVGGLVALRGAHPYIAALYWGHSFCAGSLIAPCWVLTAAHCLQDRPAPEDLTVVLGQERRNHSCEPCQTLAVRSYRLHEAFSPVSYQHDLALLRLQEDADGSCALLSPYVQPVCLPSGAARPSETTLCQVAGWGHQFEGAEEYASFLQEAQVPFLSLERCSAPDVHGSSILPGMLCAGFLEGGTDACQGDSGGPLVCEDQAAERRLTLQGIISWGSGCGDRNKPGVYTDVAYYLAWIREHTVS
T1 sequence (P00748 20-372 partner limits assumed): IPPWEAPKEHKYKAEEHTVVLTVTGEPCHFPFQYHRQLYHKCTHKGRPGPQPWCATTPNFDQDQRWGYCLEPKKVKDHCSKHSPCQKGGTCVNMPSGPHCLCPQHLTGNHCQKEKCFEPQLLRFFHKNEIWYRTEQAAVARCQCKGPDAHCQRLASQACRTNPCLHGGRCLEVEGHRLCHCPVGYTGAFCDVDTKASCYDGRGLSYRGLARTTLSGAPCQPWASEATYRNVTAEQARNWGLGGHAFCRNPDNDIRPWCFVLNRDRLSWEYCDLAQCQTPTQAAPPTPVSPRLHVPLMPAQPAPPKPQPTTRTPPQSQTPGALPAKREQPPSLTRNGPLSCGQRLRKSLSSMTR
Experimental: Determination of Human Factor XIIa (hFXIIa) inhibition
The Km for the cleavage of the substrate by hFXIIa was determined by standard transformation of the Michaelis-Menten equation, with subsequent inhibition assays performed at substrate Km concentration.

FXa, sequence (P00742 235-488 limits assumed): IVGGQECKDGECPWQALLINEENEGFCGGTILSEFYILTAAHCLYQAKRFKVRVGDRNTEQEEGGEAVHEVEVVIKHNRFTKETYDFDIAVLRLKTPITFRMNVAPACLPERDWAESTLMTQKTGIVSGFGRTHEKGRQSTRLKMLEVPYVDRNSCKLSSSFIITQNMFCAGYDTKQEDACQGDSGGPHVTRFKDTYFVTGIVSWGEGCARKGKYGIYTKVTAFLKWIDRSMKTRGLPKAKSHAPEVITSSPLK
FXa, sequence (P00742 41-179 partner limits assumed): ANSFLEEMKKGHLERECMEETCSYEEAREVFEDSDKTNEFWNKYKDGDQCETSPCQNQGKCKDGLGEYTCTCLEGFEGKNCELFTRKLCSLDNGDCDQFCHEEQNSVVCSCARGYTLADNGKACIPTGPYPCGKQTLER

Row | Compound | IC50 [1] [µM] | IC50 [2] [µM]
1 | Cc1ccncc1CNC(=O)c1nn(-c2cccc(Cl)c2)c2c1CCN(c1ccc3c(c1)C(=O)N(C)[C@@H](CO)CO3)C2=O [Example 1396, (S)-1-(3-chlorophenyl)-6-(3-(hydroxymethyl)-4-methyl-5-oxo-2,3,4,5-tetrahydrobenzo[f][1,4]oxazepin-7-yl)-N-((4-methylpyridin-3-yl)methyl)-7-oxo-4,5,6,7-tetrahydro-1H-pyrazolo[3,4-c]pyridine-3-carboxamide] | > 40 | 0.3 to 1
2 | CCNC(=O)c1nn(-c2cccc(Cl)c2)c2c1CCN(c1cccc(N3C(=O)CC[C@H]3C)c1)C2=O [Example 1397, (R)-1-(3-chlorophenyl)-N-ethyl-6-(3-(2-methyl-5-oxopyrrolidin-1-yl)phenyl)-7-oxo-4,5,6,7-tetrahydro-1H-pyrazolo[3,4-c]pyridine-3-carboxamide] | > 40 | 10 to 40
3 | CCNC(=O)c1nn(-c2cccc(Cl)c2)c2c1CCN(c1cccc(-n3ccn(C)c3=O)c1)C2=O [Example 1399, 1-(3-chlorophenyl)-N-ethyl-6-(3-(3-methyl-2-oxo-2,3-dihydro-1H-imidazol-1-yl)phenyl)-7-oxo-4,5,6,7-tetrahydro-1H-pyrazolo[3,4-c]pyridine-3-carboxamide] | > 40 | 1 to 3
4 | CCNC(=O)c1nn(-c2cccc(Cl)c2)c2c1CCN(c1ccc(OC)c(N3CCCC3=O)c1)C2=O [Example 1401, 1-(3-chlorophenyl)-N-ethyl-6-(4-methoxy-3-(2-oxopyrrolidin-1-yl)phenyl)-7-oxo-4,5,6,7-tetrahydro-1H-pyrazolo[3,4-c]pyridine-3-carboxamide] | > 40 | 1 to 3
5 | CCNC(=O)c1nn(-c2cccc(Cl)c2)c2c1CCN(c1ccc(OC)c(N3C(=O)CC4CC43)c1)C2=O (stereo not shown) [Example 1402, 1-(3-chlorophenyl)-N-ethyl-6-(4-methoxy-3-(3-oxo-2-azabicyclo[3.1.0]hexan-2-yl)phenyl)-7-oxo-4,5,6,7-tetrahydro-1H-pyrazolo[3,4-c]pyridine-3-carboxamide] | > 40 | 3 to 10
6 | CN1CCc2ccc(N3CCc4c(C(=O)NCC5CC5)nn(-c5cccc(Cl)c5F)c4C3=O)cc2C1=O [Example 2004, 1-(3-chloro-2-fluorophenyl)-N-(cyclopropylmethyl)-6-(2-methyl-1-oxo-1,2,3,4-tetrahydroisoquinolin-7-yl)-7-oxo-4,5,6,7-tetrahydro-1H-pyrazolo[3,4-c]pyridine-3-carboxamide] | > 40 | 0.1 to 0.3
7 | Cc1cccc(-n2nc(C(=O)NCc3cnccc3C)c3c2C(=O)N(c2ccc4c(c2)CN(CCO)CC4)CC3)c1 [Example 2008, 6-(2-(2-hydroxyethyl)-1,2,3,4-tetrahydroisoquinolin-7-yl)-N-((4-methylpyridin-3-yl)methyl)-7-oxo-1-(m-tolyl)-4,5,6,7-tetrahydro-1H-pyrazolo[3,4-c]pyridine-3-carboxamide] | 3 to 10 | 0.01 to 0.1
8 | Cc1ccncc1CNC(=O)c1nn(-c2cccc(C(F)(F)F)c2)c2c1CCN(c1ccc3c(c1)CN(CCO)CC3)C2=O [Example 2009, 6-(2-(2-hydroxyethyl)-1,2,3,4-tetrahydroisoquinolin-7-yl)-N-((4-methylpyridin-3-yl)methyl)-7-oxo-1-(3-(trifluoromethyl)phenyl)-4,5,6,7-tetrahydro-1H-pyrazolo[3,4-c]pyridine-3-carboxamide] | > 40 | 0.1 to 0.3
9 | Cc1ccncc1CNC(=O)c1nn(-c2cccc(C#N)c2)c2c1CCN(c1ccc3c(c1)CN(CCO)CC3)C2=O [Example 2010, 1-(3-cyanophenyl)-6-(2-(2-hydroxyethyl)-1,2,3,4-tetrahydroisoquinolin-7-yl)-N-((4-methylpyridin-3-yl)methyl)-7-oxo-4,5,6,7-tetrahydro-1H-pyrazolo[3,4-c]pyridine-3-carboxamide] | > 40 | 0.1 to 0.3
10 | Cc1cc(CNC(=O)c2nn(-c3cccc(C#N)c3)c3c2CCN(c2ccc4c(c2)C(=O)N(C)CC4)C3=O)nn1C [Example 2012, 1-(3-cyanophenyl)-N-((1,5-dimethyl-1H-pyrazol-3-yl)methyl)-6-(2-methyl-1-oxo-1,2,3,4-tetrahydroisoquinolin-7-yl)-7-oxo-4,5,6,7-tetrahydro-1H-pyrazolo[3,4-c]pyridine-3-carboxamide] | > 40 | 0.3 to 1
11 | CN1CCc2ccc(N3CCc4c(C(=O)NCC5CC5)nn(-c5cc(Cl)cc(C#N)c5)c4C3=O)cc2C1=O [Example 2013, 1-(3-chloro-5-cyanophenyl)-N-(cyclopropylmethyl)-6-(2-methyl-1-oxo-1,2,3,4-tetrahydroisoquinolin-7-yl)-7-oxo-4,5,6,7-tetrahydro-1H-pyrazolo[3,4-c]pyridine-3-carboxamide] | > 40 | 3 to 10

Continued, values first:

Row | IC50 [1] [µM] | IC50 [2] [µM] | Compound
12 | > 40 | 1 to 3 | Cc1cc(CNC(=O)c2nn(-c3cccc(Cl)c3)c3c2CCN(c2ccc4c(c2)C(=O)N(C)[C@@H](CO)CO4)C3=O)nn1C [Example 1395, (S)-1-(3-chlorophenyl)-N-((1,5-dimethyl-1H-pyrazol-3-yl)methyl)-6-(3-(hydroxymethyl)-4-methyl-5-oxo-2,3,4,5-tetrahydrobenzo[f][1,4]oxazepin-7-yl)-7-oxo-4,5,6,7-tetrahydro-1H-pyrazolo[3,4-c]pyridine-3-carboxamide]
13 | > 40 | 10 to 40 | CCNC(=O)c1nn(-c2cccc(Cl)c2)c2c1CCN(c1cccc(N3C(=O)CC[C@@H]3C)c1)C2=O [Example 1398, (S)-1-(3-chlorophenyl)-N-ethyl-6-(3-(2-methyl-5-oxopyrrolidin-1-yl)phenyl)-7-oxo-4,5,6,7-tetrahydro-1H-pyrazolo[3,4-c]pyridine-3-carboxamide]
14 | > 40 | 1 to 3 | CCNC(=O)c1nn(-c2cccc(Cl)c2)c2c1CCN(c1cccc(N3CCC4(CC4)C3=O)c1)C2=O [Example 1400, 1-(3-chlorophenyl)-N-ethyl-7-oxo-6-(3-(4-oxo-5-azaspiro[2.4]heptan-5-yl)phenyl)-4,5,6,7-tetrahydro-1H-pyrazolo[3,4-c]pyridine-3-carboxamide]
15 | 3 to 10 | 1 to 3 | CN1CCc2ccc(N3CCc4c(CNS(C)(=O)=O)nn(-c5cccc(Cl)c5)c4C3=O)cc2C1=O [Example 1403, N-((1-(3-chlorophenyl)-6-(2-methyl-1-oxo-1,2,3,4-tetrahydroisoquinolin-7-yl)-7-oxo-4,5,6,7-tetrahydro-1H-pyrazolo[3,4-c]pyridin-3-yl)methyl)methanesulfonamide]
16 | > 40 | 0.1 to 0.3 | CN1CCc2ccc(N3CCc4c(C(=O)N[C@@H](CO)C5CC5)nn(-c5cccc(Cl)c5)c4C3=O)cc2C1=O [Example 1404, (R)-1-(3-chlorophenyl)-N-(1-cyclopropyl-2-hydroxyethyl)-6-(2-methyl-1-oxo-1,2,3,4-tetrahydroisoquinolin-7-yl)-7-oxo-4,5,6,7-tetrahydro-1H-pyrazolo[3,4-c]pyridine-3-carboxamide]
17 | > 40 | 0.01 to 0.1 | Cc1ccncc1CNC(=O)c1nn(-c2cccc(Cl)c2F)c2c1CCN(c1ccc3c(c1)CN(CCO)CC3)C2=O [Example 2002, 1-(3-Chloro-2-fluorophenyl)-6-(2-(2-hydroxyethyl)-1,2,3,4-tetrahydroisoquinolin-7-yl)-N-((4-methylpyridin-3-yl)methyl)-7-oxo-4,5,6,7-tetrahydro-1H-pyrazolo[3,4-c]pyridine-3-carboxamide]
18 | > 40 | 0.3 to 1 | CN1CCc2ccc(N3CCc4c(C(=O)NCC5CC5)nn(-c5cccc(C#N)c5)c4C3=O)cc2C1=O [Example 2005, 1-(3-cyanophenyl)-N-(cyclopropylmethyl)-6-(2-methyl-1-oxo-1,2,3,4-tetrahydroisoquinolin-7-yl)-7-oxo-4,5,6,7-tetrahydro-1H-pyrazolo[3,4-c]pyridine-3-carboxamide]
19 | > 40 | 10 to 40 | CN1CCc2ccc(N3CCc4c(C(=O)NCC5CC5)nn(-c5cccc(C(N)=O)c5)c4C3=O)cc2C1=O [Example 2006, 1-(3-carbamoylphenyl)-N-(cyclopropylmethyl)-6-(2-methyl-1-oxo-1,2,3,4-tetrahydroisoquinolin-7-yl)-7-oxo-4,5,6,7-tetrahydro-1H-pyrazolo[3,4-c]pyridine-3-carboxamide]
20 | > 40 | 0.1 to 0.3 | Cc1ccc(-n2nc(C(=O)NCc3cnccc3C)c3c2C(=O)N(c2ccc4c(c2)CN(CCO)CC4)CC3)cc1Cl [Example 2007, 1-(3-chloro-4-methylphenyl)-6-(2-(2-hydroxyethyl)-1,2,3,4-tetrahydroisoquinolin-7-yl)-N-((4-methylpyridin-3-yl)methyl)-7-oxo-4,5,6,7-tetrahydro-1H-pyrazolo[3,4-c]pyridine-3-carboxamide]
